Results taken from patent US6143311A, “Iodopropargyl derivatives and antimicrobial agents comprising them as an active ingredient” (Nagase & Company, Ltd., priority 1997, dated 2000).
≈ marks a conversion by molar mass, not a printed value.

Assays:
[1] = system: Eschericia coli; assay: MIC against bacteria, Eschericia coli (nutrient broth, turbidity); type: cell-based; conditions: 30° C., 24 hours; read-out: Antimicrobial activity (MIC), Bacteria B: Eschericia coli
Description: (§1) The minimum inhibitory concentration (hereinafter abbreviated as MIC) against four bacteria (Enterobacter aerogenes, Eschericia coli, Pseudomonas aeruginosa and Bacillus subtillis) and four fungi (Aspergillusniger, Penicillium funiculosum, Gliocladium virens and Trichoderma viride) was measured and used as an indicator of the antimicrobial activity.
(§2) The MIC against bacteria was measured as follows. The test bacteria were cultivated by inoculating a nutrient broth with them and keeping the mixture at 37° C. for 6 hours. On the other hand, the test media were prepared by adding solutions (0.2 ml) of an iodopropargyl derivative in dimethylformamide (DMF) at varying concentrations to the nutrient broth (10 ml). The above bacterial culture (0.1 ml) was added to the test media and the mixtures were cultivated at 30° C. for 24 hours. Then, the presence or absence of microorganism growth was assessed by observing the turbidity of media, by which the MIC was determined.

[2] = system: Gliocladium virens; assay: MIC against fungi, Gliocladium virens (PDA medium); type: cell-based; conditions: Trichoderma virens, 336 h; 28° C., 2 weeks; read-out: Antimicrobial activity (MIC), Fungi G: Gliocladium virens
Description: as §1
(§3) The MIC against fungi was measured as follows. The test fungal spores were suspended in sterilized water supplemented with a wetting agent. On the other hand, test media were prepared by adding solutions (0.3 ml) of an iodopropargyl derivative in dimethylformamide (DMF) at varying concentrations to a potato-dextrose-agar (PDA) medium (15 ml). The above spore suspensions (1 ml) were spread over the test media and the media were cultivated at 28° C. for 2 weeks. The presence or absence of fungal growth on the media was then observed to determine the MIC.

[3] = system: Pseudomonas aeruginosa; assay: MIC against bacteria, Pseudomonas aeruginosa (nutrient broth, turbidity); type: cell-based; conditions: 30° C., 24 hours, read-out: Antimicrobial activity (MIC), Bacteria C: Pseudomonas aeruginosa
Description: as §1, §2

[4] = system: Trichoderma viride; assay: MIC against fungi, Trichoderma viride (PDA medium); type: cell-based; conditions: 336 h, 28° C., 2 weeks, read-out: Antimicrobial activity (MIC), Fungi H: Trichoderma viride
Description: as §1, §3

[5] = system: Aspergillus niger; assay: MIC against fungi, Aspergillus niger (PDA medium); type: cell-based; conditions: 336 h, 28° C., 2 weeks, read-out: Antimicrobial activity (MIC), Fungi E: Aspergillus niger
Description: as §1, §3

[6] = system: Penicillium funiculosum; assay: MIC against fungi, Penicillium funiculosum (PDA medium); type: cell-based; conditions: Talaromyces funiculosus, 336 h; 28° C., 2 weeks; read-out: Antimicrobial activity (MIC), Fungi F: Penicillium funiculosum
Description: as §1, §3

[7] = system: Enterobacter aerogenes; assay: MIC against bacteria, Enterobacter aerogenes (nutrient broth, turbidity); type: cell-based; conditions: Klebsiella aerogenes; 30° C., 24 hours; read-out: Antimicrobial activity (MIC), Bacteria A: Enterobacter aerogenes
Description: as §1, §2

[8] = system: Bacillus subtillis; assay: MIC against bacteria, Bacillus subtillis (nutrient broth, turbidity); type: cell-based; conditions: 30° C., 24 hours, read-out: Antimicrobial activity (MIC), Bacteria D: Bacillus subtillis
Description: as §1, §2

[9] = system: four bacteria and four fungi; assay: Antimicrobial activity (MIC) against four bacteria and four fungi, overall; type: cell-based; conditions: from results of Table 1
Description: as §1, §2, §3

[10] = system: mold; conditions: background art; cited from earlier work
[11] = system: human body; conditions: background art; cited from earlier work

SMILES	MIC [1] [µg/mL]	MIC [2] [µg/mL]	MIC [3] [µg/mL]	MIC [4] [µg/mL]	MIC [5] [µg/mL]	MIC [6] [µg/mL]	MIC [7] [µg/mL]	MIC [8] [µg/mL]	antimicrobial activity compared with control 1-chloro-4-[[(3-iodo-2-propynyl)oxy]methoxy]benzene [9]	antimicrobial activity compared with the other derivatives [9]	antimicrobial activity against mold [10]	toxicity against the human body [11]
CCOc1ccccc1OC(C)OCC#CI (stereo not drawn) [Derivative III-h, 1-Ethoxy-2-[1-[(3-iodo-2-propynyl)oxy]ethoxy]benzene]	> 1000	4 to 10 (≈ 11.6 to 28.9 µM)	> 1000	2 to 4 (≈ 5.78 to 11.6 µM)	2 to 4 (≈ 5.78 to 11.6 µM)	2 to 4 (≈ 5.78 to 11.6 µM)	> 1000	20 to 40 (≈ 57.8 to 116 µM)				
COc1ccc(OCOCC#CI)cc1 [Derivative III-a, 1-[[(3-Iodo-2-propynyl)oxy]methoxy]-4-methoxybenzene]	> 1000	2 to 4 (≈ 6.29 to 12.6 µM)	> 1000	0.4 to 1 (≈ 1.26 to 3.14 µM)	0.4 to 1 (≈ 1.26 to 3.14 µM)	2 to 4 (≈ 6.29 to 12.6 µM)	> 1000	10 to 20 (≈ 31.4 to 62.9 µM)	show an antimicrobial activity similar to that of 1-chloro-4-[[(3-iodo-2-propynyl)oxy]methoxy]benzene	superior to the others in the antimicrobial activity		
COc1ccc(OC(C)OCC#CI)cc1 (stereo not drawn) [Derivative III-e, 1-[1-[(3-Iodo-2-propynyl)oxy]ethoxy]-4-methoxybenzene]	> 1000	4 to 10 (≈ 12 to 30.1 µM)	> 1000	1 to 2 (≈ 3.01 to 6.02 µM)	0.4 to 1 (≈ 1.2 to 3.01 µM)	2 to 4 (≈ 6.02 to 12 µM)	> 1000	20 to 40 (≈ 60.2 to 120 µM)		superior to the others in the antimicrobial activity		
CCOc1ccccc1OCOCC#CI [Derivative III-d, 1-Ethoxy-2-[[(3-iodo-2-propynyl)oxy]methoxy]benzene]	> 1000	4 to 10 (≈ 12 to 30.1 µM)	> 1000	1 to 2 (≈ 3.01 to 6.02 µM)	1 to 2 (≈ 3.01 to 6.02 µM)	4 to 10 (≈ 12 to 30.1 µM)	> 1000	20 to 40 (≈ 60.2 to 120 µM)				

More lines, main results first:

MIC [1] [µg/mL]	MIC [2] [µg/mL]	MIC [3] [µg/mL]	MIC [4] [µg/mL]	MIC [5] [µg/mL]	MIC [6] [µg/mL]	MIC [7] [µg/mL]	MIC [8] [µg/mL]	SMILES	antimicrobial activity compared with control 1-chloro-4-[[(3-iodo-2-propynyl)oxy]methoxy]benzene [9]	antimicrobial activity compared with the other derivatives [9]	antimicrobial activity against mold [10]	toxicity against the human body [11]
> 1000	> 20	> 1000	10 to 20 (≈ 31.4 to 62.9 µM)	10 to 20 (≈ 31.4 to 62.9 µM)	> 20	> 1000	200 to 400 (≈ 629 to 1260 µM)	COc1ccccc1OCOCC#CI [Derivative III-c, 1-[[(3-Iodo-2-propynyl)oxy]methoxy]-2-methoxybenzene]				
> 1000	4 to 10 (≈ 12 to 30.1 µM)	> 1000	2 to 4 (≈ 6.02 to 12 µM)	1 to 2 (≈ 3.01 to 6.02 µM)	2 to 4 (≈ 6.02 to 12 µM)	> 1000	20 to 40 (≈ 60.2 to 120 µM)	COc1ccccc1OC(C)OCC#CI (stereo not drawn) [Derivative III-g, 1-[1-[(3-Iodo-2-propynyl)oxy]ethoxy]-2-methoxybenzene]				
> 1000	> 20	> 1000	4 to 10 (≈ 12 to 30.1 µM)	4 to 10 (≈ 12 to 30.1 µM)	> 20	> 1000	100 to 200 (≈ 301 to 602 µM)	CCOc1ccc(OCOCC#CI)cc1 [Derivative III-b, 1-Ethoxy-4-[[(3-iodo-2-propynyl)oxy]methoxy]benzene]				
> 1000	0.4 to 1 (≈ 1.28 to 3.19 µM)	> 1000	0.4 to 1 (≈ 1.28 to 3.19 µM)	1 to 2 (≈ 3.19 to 6.39 µM)	0.4 to 1 (≈ 1.28 to 3.19 µM)	> 1000	20 to 40 (≈ 63.9 to 128 µM)	N#Cc1ccc(OCOCC#CI)cc1 [Derivative III-i, 1-Cyano-4-[[(3-iodo-2-propynyl)oxy]methoxy]benzene]	show an antimicrobial activity similar to that of 1-chloro-4-[[(3-iodo-2-propynyl)oxy]methoxy]benzene	superior to the others in the antimicrobial activity		
400 to 1000 (≈ 1160 to 2890 µM)	4 to 10 (≈ 11.6 to 28.9 µM)	> 1000	1 to 2 (≈ 2.89 to 5.78 µM)	1 to 2 (≈ 2.89 to 5.78 µM)	4 to 10 (≈ 11.6 to 28.9 µM)	> 1000	10 to 20 (≈ 28.9 to 57.8 µM)	CCOc1ccc(OC(C)OCC#CI)cc1 (stereo not drawn) [Derivative III-f, 1-Ethoxy-4-[1-[(3-Iodo-2-propynyl)oxy]ethoxy]benzene]				
100 to 200 (≈ 310 to 620 µM)	1 to 2 (≈ 3.1 to 6.2 µM)	> 1000	1 to 2 (≈ 3.1 to 6.2 µM)	0.4 to 1 (≈ 1.24 to 3.1 µM)	0.4 to 1 (≈ 1.24 to 3.1 µM)	> 1000	10 to 20 (≈ 31 to 62 µM)	Clc1ccc(OCOCC#CI)cc1 [IF-1000, 1-Chloro-4-[[(3-iodo-2-propynyl)oxy]methoxy]benzene, reference compound]			particularly high antimicrobial activity against mold	low toxicity against the human body
